Experimental data: US20220081444A1, “6,7-DIHYDRO-4H-PYRAZOLO[1,5-A]PYRAZINE INDOLE-2-CARBOXAMIDES ACTIVE AGAINST THE HEPATITIS B VIRUS (HBV)” (AiCuris GmbH & Co. KG, priority 2018, published 2022)
pEC50: −log10 of the molar value. Where a name gives a salt, the structure may show the parent alone.

test system: HBV; conditions: Hepatitis B virus, HePAD38, 144 h, read-out: Cell Activity (EC50)

SMILES	pEC50
COC1(CNc2cc3n(n2)CCN(C(=O)c2cc4ccccc4[nH]2)C3)CCC1 [Example 60, 5-(1H-indole-2-carbonyl)-N-[(1-methoxycyclobutyl)methyl]-4H,5H,6H,7H-pyrazolo[1,5-a]pyrazin-2-amine]	> 6.00
O=C(Nc1cc2n(n1)CCN(C(=O)c1cc3ccccc3[nH]1)C2)C1CCOCC1 [Example 18, N-[5-(1H-indole-2-carbonyl)-4H,5H,6H,7H-pyrazolo[1,5-a]pyrazin-2-yl]oxane-4-carboxamide]	> 6.00
O=C(c1cc2ccccc2[nH]1)N1CCn2nc(NCC3(CO)CCC3)cc2C1 [Example 79, [1-({[5-(1H-indole-2-carbonyl)-4H,5H,6H,7H-pyrazolo[1,5-a]pyrazin-2-yl]amino}methyl)cyclobutyl]methanol]	> 6.00
CC1(CNc2cc3n(n2)CCN(C(=O)c2cc4ccccc4[nH]2)C3)CCOC1 (stereo not shown) [Example 75, 5-(1H-indole-2-carbonyl)-N-[(3-methyloxolan-3-yl)methyl]-4H,5H,6H,7H-pyrazolo[1,5-a]pyrazin-2-amine]	> 6.00
O=C(c1cc2ccccc2[nH]1)N1CCn2nc(NS(=O)(=O)C3CCOCC3)cc2C1 [Example 53, N-[5-(1H-indole-2-carbonyl)-4H,5H,6H,7H-pyrazolo[1,5-a]pyrazin-2-yl]oxane-4-sulfonamide]	> 6.00
O=C(Nc1cc2n(n1)CCN(C(=O)c1cc3ccccc3[nH]1)C2)C1CCOC1 (stereo not shown) [Example 30, N-[5-(1H-indole-2-carbonyl)-4H,5H,6H,7H-pyrazolo[1,5-a]pyrazin-2-yl]oxolane-3-carboxamide]	> 6.00
Nc1cc2n(n1)CCN(C(=O)c1cc3c(Cl)cccc3[nH]1)C2 [Example 32, 5-(4-chloro-1H-indole-2-carbonyl)-4H,5H,6H,7H-pyrazolo[1,5-a]pyrazin-2-amine]	> 6.00
O=C(c1cc2c(Cl)cccc2[nH]1)N1CCn2nc(NCC3CCOC3)cc2C1 (stereo not shown) [Example 26, 5-(4-chloro-1H-indole-2-carbonyl)-N-[(oxolan-3-yl)methyl]-4H,5H,6H,7H-pyrazolo[1,5-a]pyrazin-2-amine]	> 6.00
O=C(c1cc2ccccc2[nH]1)N1CCn2nc(NCC3CCOC3)cc2C1 (stereo not shown) [Example 31, 5-(1H-indole-2-carbonyl)-N-[(oxolan-3-yl)methyl]-4H,5H,6H,7H-pyrazolo[1,5-a]pyrazin-2-amine]	> 6.00
Nc1cc2n(n1)CCN(C(=O)c1cc3c(F)cc(F)cc3[nH]1)C2 [Example 33, 5-(4,6-difluoro-1H-indole-2-carbonyl)-4H,5H,6H,7H-pyrazolo[1,5-a]pyrazin-2-amine]	> 6.00
CC(C)OC1(CNc2cc3n(n2)CCN(C(=O)c2cc4ccccc4[nH]2)C3)CCC1 [Example 78, 5-(1H-indole-2-carbonyl)-N-{[1-(propan-2-yloxy)cyclobutyl]methyl}-4H,5H,6H,7H-pyrazolo[1,5-a]pyrazin-2-amine]	> 6.00
CC(CO)CNc1cc2n(n1)CCN(C(=O)c1cc3ccccc3[nH]1)C2 (stereo not shown) [Example 72, 3-{[5-(1H-indole-2-carbonyl)-4H,5H,6H,7H-pyrazolo[1,5-a]pyrazin-2-yl]amino}-2-methylpropan-1-ol]	> 6.00
O=C(Nc1cc2n(n1)CCN(C(=O)c1cc3ccccc3[nH]1)C2)C1CCN(c2ccncc2)CC1 [Example 57, N-[5-(1H-indole-2-carbonyl)-4H,5H,6H,7H-pyrazolo[1,5-a]pyrazin-2-yl]-1-(pyridin-4-yl)piperidine-4-carboxamide]	> 6.00
O=C(Nc1cc2n(n1)CCN(C(=O)c1cc3ccccc3[nH]1)C2)C1CCNCC1(F)F (stereo not shown) [Example 73, 3,3-difluoro-N-[5-(1H-indole-2-carbonyl)-4H,5H,6H,7H-pyrazolo[1,5-a]pyrazin-2-yl]piperidine-4-carboxamide]	> 6.00
CCc1cc(F)cc2[nH]c(C(=O)N3CCn4nc(NC(=O)C5CCOC5)cc4C3)cc12 (stereo not shown) [Example 23, N-[5-(4-ethyl-6-fluoro-1H-indole-2-carbonyl)-4H,5H,6H,7H-pyrazolo[1,5-a]pyrazin-2-yl]oxolane-3-carboxamide]	> 6.00
CC1Cn2nc(NCC3CCOC3)cc2CN1C(=O)c1cc2c(Cl)cccc2[nH]1 (stereo not shown) [Example 13, 5-(4-chloro-1H-indole-2-carbonyl)-6-methyl-N-[(oxolan-3-yl)methyl]-4H,5H,6H,7H-pyrazolo[1,5-a]pyrazin-2-amine]	> 6.00
CCc1cccc2[nH]c(C(=O)N3CCn4nc(NC(=O)C5CCOC5)cc4C3)cc12 (stereo not shown) [Example 24, N-[5-(4-ethyl-1H-indole-2-carbonyl)-4H,5H,6H,7H-pyrazolo[1,5-a]pyrazin-2-yl]oxolane-3-carboxamide]	> 6.00
CC(=O)N1CCC(C(=O)Nc2cc3n(n2)CCN(C(=O)c2cc4ccccc4[nH]2)C3)CC1 [Example 42, 1-acetyl-N-[5-(1H-indole-2-carbonyl)-4H,5H,6H,7H-pyrazolo[1,5-a]pyrazin-2-yl]piperidine-4-carboxamide]	> 6.00
O=C(c1cc2ccccc2[nH]1)N1CCn2nc(NS(=O)(=O)C3CCCCC3)cc2C1 [Example 51, N-[5-(1H-indole-2-carbonyl)-4H,5H,6H,7H-pyrazolo[1,5-a]pyrazin-2-yl]cyclohexanesulfonamide]	> 6.00

SMILES	pEC50
CC1Cn2nc(NCC3CCOC3)cc2CN1C(=O)c1cc2ccccc2[nH]1 (stereo not shown) [Example 12, 5-(1H-indole-2-carbonyl)-6-methyl-N-[(oxolan-3-yl)methyl]-4H,5H,6H,7H-pyrazolo[1,5-a]pyrazin-2-amine]	> 6.00
O=C(Nc1cc2n(n1)CCN(C(=O)c1cc3c(F)cc(F)cc3[nH]1)C2)C1CCOC1 (stereo not shown) [Example 22, N-[5-(4,6-difluoro-1H-indole-2-carbonyl)-4H,5H,6H,7H-pyrazolo[1,5-a]pyrazin-2-yl]oxolane-3-carboxamide]	> 6.00
COC1(CNc2cc3n(n2)CCN(C(=O)c2cc4ccccc4[nH]2)C3)CCOC1 (stereo not shown) [Example 94, 5-(1H-indole-2-carbonyl)-N-[(3-methoxyoxolan-3-yl)methyl]-4H,5H,6H,7H-pyrazolo[1,5-a]pyrazin-2-amine]	> 6.00
O=C(c1cc2ccccc2[nH]1)N1CCn2nc(NCC3(O)CCC3)cc2C1 [Example 71, 1-({[5-(1H-indole-2-carbonyl)-4H,5H,6H,7H-pyrazolo[1,5-a]pyrazin-2-yl]amino}methyl)cyclobutan-1-ol]	> 6.00
O=C(c1cc2ccccc2[nH]1)N1CCn2nc(N[C@H]3C[C@@H](O)C3)cc2C1 [Example 91, (1s,3s)-3-{[5-(1H-indole-2-carbonyl)-4H,5H,6H,7H-pyrazolo[1,5-a]pyrazin-2-yl]amino}cyclobutan-1-ol]	> 6.00
CC(=O)N1CC(C(=O)Nc2cc3n(n2)CCN(C(=O)c2cc4ccccc4[nH]2)C3)C1 [Example 66, 1-acetyl-N-[5-(1H-indole-2-carbonyl)-4H,5H,6H,7H-pyrazolo[1,5-a]pyrazin-2-yl]azetidine-3-carboxamide]	> 6.00
O=C(Nc1cc2n(n1)CCN(C(=O)c1cc3ccccc3[nH]1)C2)C1CNC1 [Example 4, N-[5-(1H-indole-2-carbonyl)-4H,5H,6H,7H-pyrazolo[1,5-a]pyrazin-2-yl]azetidine-3-carboxamide Hydrochloride]	5.00 to 6.00
CCc1cc(F)cc2[nH]c(C(=O)N3CCn4nc(NS(=O)(=O)C5CC5)cc4C3)cc12 [Example 39, N-[5-(4-ethyl-6-fluoro-1H-indole-2-carbonyl)-4H,5H,6H,7H-pyrazolo[1,5-a]pyrazin-2-yl]cyclopropanesulfonamide]	> 6.00
CCc1cccc2[nH]c(C(=O)N3CCn4nc(NS(=O)(=O)C5CC5)cc4C3)cc12 [Example 40, N-[5-(4-ethyl-1H-indole-2-carbonyl)-4H,5H,6H,7H-pyrazolo[1,5-a]pyrazin-2-yl]cyclopropanesulfonamide]	> 6.00
O=C(Nc1cc2n(n1)CCN(C(=O)c1cc3c(Cl)cccc3[nH]1)C2)C1CCOC1 (stereo not shown) [Example 19, N-[5-(4-chloro-1H-indole-2-carbonyl)-4H,5H,6H,7H-pyrazolo[1,5-a]pyrazin-2-yl]oxolane-3-carboxamide]	> 6.00
O=C(c1cc2c(Cl)cc(F)cc2[nH]1)N1CCn2nc(NCC3CCOC3)cc2C1 (stereo not shown) [Example 27, 5-(4-chloro-6-fluoro-1H-indole-2-carbonyl)-N-[(oxolan-3-yl)methyl]-4H,5H,6H,7H-pyrazolo[1,5-a]pyrazin-2-amine]	> 6.00
CC1Cn2nc(NC(=O)C3CCOC3)cc2CN1C(=O)c1cc2c(Cl)cccc2[nH]1 (stereo not shown) [Example 11, N-[5-(4-chloro-1H-indole-2-carbonyl)-6-methyl-4H,5H,6H,7H-pyrazolo[1,5-a]pyrazin-2-yl]oxolane-3-carboxamide]	> 6.00
O=C(c1cc2ccccc2[nH]1)N1CCn2nc(NCC3CCOCC3)cc2C1 [Example 15, 5-(1H-indole-2-carbonyl)-N-[(oxan-4-yl)methyl]-4H,5H,6H,7H-pyrazolo[1,5-a]pyrazin-2-amine]	> 6.00
CN1CCC(C(=O)Nc2cc3n(n2)CCN(C(=O)c2cc4ccccc4[nH]2)C3)CC1C(F)(F)F (stereo not shown) [Example 81, N-[5-(1H-indole-2-carbonyl)-4H,5H,6H,7H-pyrazolo[1,5-a]pyrazin-2-yl]-1-methyl-2-(trifluoromethyl)piperidine-4-carboxamide]	> 6.00
O=C(c1cc2c(Cl)cccc2[nH]1)N1CCn2nc(NC3CCC(O)CC3)cc2C1 (stereo not shown) [Example 3, 4-{[5-(4-chloro-1H-indole-2-carbonyl)-4H,5H,6H,7H-pyrazolo[1,5-a]pyrazin-2-yl]amino}cyclohexan-1-ol]	> 6.00
O=C(Nc1cc2n(n1)CCN(C(=O)c1cc3c(Cl)c(F)ccc3[nH]1)C2)C1CCOC1 (stereo not shown) [Example 20, N-[5-(4-chloro-5-fluoro-1H-indole-2-carbonyl)-4H,5H,6H,7H-pyrazolo[1,5-a]pyrazin-2-yl]oxolane-3-carboxamide]	> 6.00
CC1Cn2nc(NC(=O)C3CCOC3)cc2CN1C(=O)c1cc2ccccc2[nH]1 (stereo not shown) [Example 10, N-[5-(1H-indole-2-carbonyl)-6-methyl-4H,5H, 6H,7H-pyrazolo[1,5-a]pyrazin-2-yl]oxolane-3-carboxamide]	> 6.00
O=C(c1cc2ccccc2[nH]1)N1CCn2nc(NS(=O)(=O)Cc3ccccc3)cc2C1 [Example 43, N-[5-(1H-indole-2-carbonyl)-4H,5H,6H,7H-pyrazolo[1,5-a]pyrazin-2-yl]-1-phenylmethanesulfonamide]	> 6.00
